Reference: patent US6949533B2, “6,7-Oxygenated steroids and uses related thereto” (Inflazyme Pharmaceuticals Ltd., priority 1996, dated 2005)
Where two headings read alike, the source gives them in different places.

What was measured:
guinea pig ileum = experiment: antigen-induced contraction of ileum from sensitized guinea pigs; settings: Cavia porcellus, read-out: Percentage Inhibition, 30 μM compound, n = 3-4
Experimental: The ability of compounds to inhibit allergen-induced contraction of ileum from sensitized animals is indicative of antiallergic activity. Sensitized guinea pig ileum is particularly useful in measuring the immediate allergic response.
The guinea pig ileum has been used to evaluate the ability of compounds to inhibit allergan-induced histamine and mediator release causing smooth muscle contraction. Guinea pigs were sensitized by an intraperitoneal injection of 100 mg ovalbumin and an intramuscular injection of 50 mg ovalbumin on day 0, followed by a second intramuscular injection of 50 mg ovalbumin on day 1. […] Segments of ileum were prepared and suspended, with muscle contractions being measured in the longitudinal plane, in Tyrode's buffer at 37° C. and aerated with 5% CO2 in O2. Tissues were suspended under a resting tension of 2 grams and isometric contractions were measured using force-displacement transducers coupled to a polygraph. Tissues were stimulated with 3 μM histamine 3 times to ensure reproducible contractions were obtained. Tissues were then incubated with each compound (30 μM) or 0.15% dimethylsulphoxide (DMSO) as a control, for 20 min, after which time the tissues were challenged with 100 μg/ml ovalbumin. The magnitude of the contraction induced by OA in the presence of each compound was expressed as a percentage of the contraction obtained to 3 μM histamine. The protective effects of the various compounds on OA-induced contraction of guinea pig ileum from sensitized animals are summarized in Table 4.

[1] = system: passively sensitized rat mast cells (RBL-2H3); experiment: antigen-induced release of hexosaminidase from RBL-2H3 cells; format: cell-based; settings: Rattus norvegicus
Experimental: (§1) The anti-allergic effects of various polyhydroxylated steroids of the present invention were evaluated by measuring their effect on antigen-induced secretion of hexosaminidase from a passively sensitized rat mast cell line (RBL-2H3) and a murine mast cell line (MC/9). The ability of agents to inhibit the release of mast cell granule contents, e.g., histamine and hexosaminidase, is indicative of anti-allergy and/or anti-asthma activity.
(§2) Hexosaminidase is released from the mast cell granule along with histamine and other mediators during antigen challenge. RBL-2H3 and MC/9 cells were grown in culture and passively sensitized to dinitrophenol (DNP) using anti-human-DNP (IgE). Cells were incubated with each compound (25 μM) for 1 hour at 37° C. and then stimulated with 0.1 mg/ml DNP-HSA (antigen) for 15 min. Aliquots of the supernatant were removed and used to measure the amount of hexosaminidase released during challenge with the antigen. The amount of hexosaminidase present in the supernatant was determined calorimetrically by monitoring the enzymatic metabolism of p-nitrophenyl-N-acetyl-β-D-glucosaminide (p-NAG) over a period of 1 hour at 410 nm. The effect of each compound was determined as a percentage of the antigen-induced response (minus background release) obtained in the presence of DMSO alone, as set forth in Tables 2 and 3. These values were used to determine the degrees of inhibition of antigen-induced hexosaminidase release from the cells.

isolated trachea = system: isolated trachea; design: species or system guinea pig; settings: compound 20 μM, study 2
Experimental: The effects of a number of the compounds described herein on allergen-induced bronchoconstriction were evaluated for anti-asthma activity. The ability of a compound to inhibit allergen-induced decreases in lung function in sensitized guinea pigs in response to antigen-challenge is indicative of anti-asthma activity. In particular, the model system is useful in the evaluation of the potential effects of a compound in the treatment of the early asthmatic reaction (EAR) when severe bronchoconstriction occurs.
Guinea pigs were exposed to a nebulized solution of 1% ovalbumin (OA) in saline for 15 min. […] Tracheal rings were prepared and bathed in Krebs-Henseleit solution at 37° C. and aerated with 5% CO2 in […]. Tissues were suspended under a resting tension of 2 g and isometric contractions were measured using force-displacement transducers coupled to a polygraph. Tissues were incubated with each compound or 0.1% dimethylsulfoxide (as a control) for 20 min, after which increasing concentrations of OA (0.001-100 μg/ml) were added to the tissue. After the final concentration of OA was added and the response was recorded, the tissues were stimulated with 100 μM methacholine which caused maximum contraction of the trachea. The magnitude of the contraction induced by OA in the presence of each compound was expressed as a percentage of the maximum contraction obtained using methacholine (100 μM).

mouse mast cells (MC/9) = experiment: antigen-induced release of hexosaminidase from MC/9 cells; format: cell-based; settings: Mus musculus, MC9, 25 μM compound, read-out: Percentage Inhibition (mean) MC/9 cells
Experimental: as §1, §2

[2] = RBL-2H3, read-out: Percentage Inhibition (mean) RBL-2H3 Cells
[3] = RBL-2H3, 25 μM compound, antigen-induced hexosaminidase release, read-out: Percentage Inhibition (mean) RBL-2H3 Cells

CC(C)(C)[Si](C)(C)OC1CC[C@]2(C)C3CC[C@@]4(C)C(CCC45OCCO5)C3[C@@H](O)[C@H](O)C2C1 (stereo partly drawn) [Compound 221]
inhibition at 30 µM (guinea pig ileum): 60.7%

C[C@]12CC[C@H]3O[C@H]3[C@@H]1[C@@H](O)[C@H](O)[C@@H]1[C@@H]2CC[C@]2(C)[C@@H](O)CC[C@@H]12 [Compound 239, 3α,4α-epoxy-6α,7β,17β-trihydroxy-5α-androstane]
inhibition at 25 µM [1, 2]: 9.6%

C[C@]12CC[C@@H](O)[C@H](O)[C@@H]1[C@@H](O)[C@H](O)[C@@H]1[C@@H]2CC[C@]2(C)[C@@H](O)CC[C@@H]12 [Compound 241, 3α,4β,6α,7β,17β-pentahydroxy-5α-androstane]
inhibition at 25 µM [1, 2]: 22%

C/C=C1/CCC2C3CCC4C[C@@H](O)CC[C@]4(C)C3CC[C@]12C (stereo partly drawn) [Compound 251]
inhibition at 30 µM (guinea pig ileum): -10.5%

CC(C)[C@H]1CC(=O)OC([C@@H](C)C2CC(=O)C3C4CCC5C[C@@H](O)CC[C@]5(C)C4CC[C@@]32C)C1 (stereo partly drawn) [Compound 266]
inhibition at 25 µM [1, 3]: -12.5% | inhibition at 30 µM (guinea pig ileum): 17.4%

CC(C)C1CC(O)OC(C(C)C2CCC3C4C(CC[C@]23C)[C@@]2(C)CC[C@@H](O)CC2[C@@H](O)[C@@H]4O)C1 (stereo partly drawn) [Compound 306, 22,29-epoxy-3,6,7,29-tetrahydroxystigmastanol]
inhibition at 25 µM [1, 3]: 40.5%

CC(=O)O[C@@H]1C2C(CC[C@@]3(C)C2CCC32OCCO2)[C@@]2(C)CC[C@H](O)CC2[C@H]1OC(C)=O (stereo partly drawn) [Compound 322]
inhibition at 25 µM [1, 3]: 25.6%

C[C@]12CC[C@@H](O)C[C@@H]1[C@@H](O)[C@H](O)[C@@H]1[C@@H]2CC[C@]2(C)C(=O)CC[C@@H]12 [Compound 326]
percentage contraction compared to 100 μM methacholine (isolated trachea; OA 0.01 μg/ml): 0%

C[C@]12CC[C@@H](O)C[C@@H]1[C@@H](O)[C@H](O)[C@@H]1[C@@H]2CC[C@]2(C)[C@@H](O)CC[C@@H]12 [Compound 327]
inhibition at 25 µM [1, 2]: 35.2% | percentage contraction compared to 100 μM methacholine (isolated trachea; OA 0.01 μg/ml): 0% | percentage contraction compared to 100 μM methacholine (isolated trachea; OA 0.1 μg/ml): 0%

C[C@]12CC[C@H](O)CC1[C@@H](O)[C@H](O)C1C2CC[C@@]2(C)C1CCC21OCCO1 (stereo partly drawn) [Compound 328]
inhibition at 25 µM [1, 3]: 34.3%

CC1(C)O[C@@H]2C3C(CC[C@]4(C)C(=O)CCC34)[C@@]3(C)CC[C@H](O)CC3[C@H]2O1 (stereo partly drawn) [Compound 331]
inhibition at 25 µM (mouse mast cells (MC/9)): 5% | inhibition at 30 µM (guinea pig ileum): 14.5%
